# Test results reported in patent US20240060999A1, “BLOOD COAGULATION INSPECTION METHOD” (FUJIMORI KOGYO CO., LTD, priority 2020, published 2024).
# What was measured:
# whole blood [1] = assay: ROTEM whole blood coagulation with rabbit brain-derived tissue thromboplastin (TP) + Ca 12 mM (CTI 20 μg/mL, PKSI-527 40 μM where stated); format: cell-based; settings: for prolongation of blood coagulation by addition of rTM: Ex5-8, TP 0.9 μg/mL+Startem, FRAGMIN 0.2 U/mL or ARIXTRA 0.5 μg/mL instead of heparan sulfate, rTM 20 or 30 nM
# whole blood [2] = assay: ROTEM whole blood coagulation with dialyzed Dade Innovin (recombinant tissue factor) 0.569 μg/mL + Ca 12 mM + CTI 20 μg/mL + PKSI-527 40 μM; format: cell-based; settings: Ex28; for CT (clotting time): Innovin 0.569 μg/mL+Ca+CTI+PKSI-527, ARIXTRA 0.5 ug/mL
# Protocol: ROTEM was used to analyze blood coagulation.
# Blood was collected using a blood collection tube containing 3.2% sodium citrate manufactured by Terumo Corporation.
# Blood coagulation was analyzed in the case of having added 4% (final concentration 0.569 μg/mL) of Dade Innovin (recombinant tissue factor: Sysmex Corporation) having being diluted by 50 times after dialysis, calcium chloride (Ca; final concentration 12 mM), heparan sulfate (final concentration 0 or 2 μg/mL), CTI (final concentration 20 μg/mL), PKSI-527 (final concentration 40 μM) without and with a soluble thrombomodulin (rTM: final concentration 30 nM) further having been added, as well as with an APC inhibitory aptamer (HS02-44G; final concentration 1 μM) in addition to 30 nM of soluble thrombomodulin.
# Blood coagulation was analyzed in the case of having added 4% (final concentration 0.569 μg/mL) of 50-fold diluted Dade Innovin (recombinant tissue factor: Sysmex Corporation) after dialysis, calcium chloride (Ca; final concentration 12 mM), low molecular weight heparan (trade name FRAGMIN; Pfizer) (final concentration 0 or 0.2 U/mL), CTI (final concentration 20 μg/mL), and PKSI-527 (final concentration 40 μM) with and without a soluble thrombomodulin (rTM; final concentration 30 nM) further having been added, as well as with an APC inhibitory aptamer (HS02-44G; final concentration 1 μM) in addition to 30 nM soluble thrombomodulin.
# ROTEM was used to analyze coagulation.
# Blood coagulation was analyzed in the case of having added 4% (final concentration 0.569 μg/mL) of 50-fold diluted Dade Innovin (recombinant tissue factor: Sysmex Corporation) after dialysis, calcium chloride (Ca; final concentration 12 mM), ARIXTRA (final concentration 0 or […]), CTI (final concentration 20 μg/mL), and PKSI-527 (final concentration 40 μM), without and with thrombomodulin (rTM; final concentration 30 nM) further having been added, as well as with an APC inhibitory aptamer (HS02-44G; final concentration 1 μM) in addition to soluble thrombomodulin 30 nM.
# [3] = unfractionated heparin 0.1 U/mL
# [4] = Ex20, TP 16.6 μg/mL+Ca+CTI+PKSI-527, ARIXTRA 0.5 μg/mL, no rTM
# [5] = Ex20, TP 16.6 μg/mL+Ca+CTI+PKSI-527, ARIXTRA 0.5 μg/mL, rTM 100 nM
# [6] = Ex20, TP 16.6 μg/mL+Ca+CTI+PKSI-527, ARIXTRA 2.0 μg/mL, no rTM
# [7] = Ex20, TP 16.6 μg/mL+Ca+CTI+PKSI-527, ARIXTRA 2.0 μg/mL, rTM 100 nM
# [8] = Ex20, TP 16.6 μg/mL+Ca+CTI+PKSI-527, ARIXTRA 3.0 μg/mL, no rTM
# [9] = Ex20, TP 16.6 μg/mL+Ca+CTI+PKSI-527, ARIXTRA 3.0 μg/mL, rTM 100 nM
# [10] = Ex20, TP 16.6 μg/mL+Ca+CTI+PKSI-527, ARIXTRA 4.0 μg/mL, no rTM
# [11] = Ex20, TP 16.6 μg/mL+Ca+CTI+PKSI-527, ARIXTRA 4.0 μg/mL, rTM 100 nM
# [12] = Ex20, TP 16.6 μg/mL+Ca+CTI+PKSI-527, ARIXTRA 5.0 μg/mL, no rTM
# [13] = Ex20, TP 16.6 μg/mL+Ca+CTI+PKSI-527, ARIXTRA 5.0 μg/mL, rTM 100 nM
# [14] = Ex21, TP 0.64 μg/mL+Ca+CTI+PKSI-527, ARIXTRA 0.5 μg/mL, no rTM
# [15] = Ex21, TP 0.64 μg/mL+Ca+CTI+PKSI-527, ARIXTRA 0.5 μg/mL, rTM 30 nM
# [16] = Ex22, TP 0.055 μg/mL+Ca+CTI+PKSI-527, ARIXTRA 0.05 μg/mL, no rTM
# [17] = Ex22, TP 0.055 μg/mL+Ca+CTI+PKSI-527, ARIXTRA 0.05 μg/mL, rTM 20 nM
# [18] = Ex22, TP 0.055 μg/mL+Ca+CTI+PKSI-527, ARIXTRA 0.20 μg/mL, no rTM
# [19] = Ex22, TP 0.055 μg/mL+Ca+CTI+PKSI-527, ARIXTRA 0.20 μg/mL, rTM 20 nM
# [20] = Ex19, TP 16.6 μg/mL+Ca+CTI+PKSI-527, unfractionated heparin 0.1 U/mL, no rTM
# [21] = Ex19, TP 16.6 μg/mL+Ca+CTI+PKSI-527, unfractionated heparin 0.1 U/mL, rTM 100 nM
# [22] = Ex19, TP 16.6 μg/mL+Ca+CTI+PKSI-527, unfractionated heparin 0.2 U/mL, no rTM
# [23] = Ex19, TP 16.6 μg/mL+Ca+CTI+PKSI-527, unfractionated heparin 0.2 U/mL, rTM 100 nM
# [24] = Ex19, TP 16.6 μg/mL+Ca+CTI+PKSI-527, unfractionated heparin 0.3 U/mL, no rTM
# [25] = Ex19, TP 16.6 μg/mL+Ca+CTI+PKSI-527, unfractionated heparin 0.3 U/mL, rTM 100 nM
molecule,measurement,setting,value
"CO[C@H]1O[C@H](COS(=O)(=O)O)[C@@H](O[C@@H]2O[C@@H](C(=O)O)[C@@H](O[C@H]3O[C@H](COS(=O)(=O)O)[C@@H](O[C@@H]4O[C@H](C(=O)O)[C@@H](O[C@H]5O[C@H](COS(=O)(=O)O)[C@@H](O)[C@H](O)[C@H]5NS(=O)(=O)O)[C@H](O)[C@H]4O)[C@H](OS(=O)(=O)O)[C@H]3NS(=O)(=O)O)[C@H](O)[C@H]2OS(=O)(=O)O)[C@H](O)[C@H]1NS(=O)(=O)O [ARIXTRA, fondaparinux sodium]",prolongation of blood coagulation by addition of rTM,whole blood [1]; [3],markedly prolonged
same,CT values,"whole blood [1]; Ex20, TP 16.6 μg/mL+Ca+CTI+PKSI-527, ARIXTRA 0, 0.5 μg/mL, no rTM",< 1 min
same,CFT (clot formation time),whole blood [1]; [4],86 s
same,CT (clotting time),whole blood [1]; [4],52 s
same,CFT (clot formation time),whole blood [1]; [5],69 s
same,CT (clotting time),whole blood [1]; [5],68 s
same,CFT (clot formation time),whole blood [1]; [6],64.0 s
same,CT (clotting time),whole blood [1]; [6],64 s
same,CFT (clot formation time),whole blood [1]; [7],61 s
same,CT (clotting time),whole blood [1]; [7],96 s
same,CFT (clot formation time),whole blood [1]; [8],78.0 s
same,CT (clotting time),whole blood [1]; [8],72 s
same,CFT (clot formation time),whole blood [1]; [9],68 s
same,CT (clotting time),whole blood [1]; [9],112 s
same,CFT (clot formation time),whole blood [1]; [10],70.0 s
same,CT (clotting time),whole blood [1]; [10],75 s
same,CFT (clot formation time),whole blood [1]; [11],77 s
same,CT (clotting time),whole blood [1]; [11],118 s
same,CFT (clot formation time),whole blood [1]; [12],77.0 s
same,CT (clotting time),whole blood [1]; [12],78 s
same,CFT (clot formation time),whole blood [1]; [13],105 s
same,CT (clotting time),whole blood [1]; [13],114 s
same,CFT (clot formation time),whole blood [1]; [14],74 s
same,CT (clotting time),whole blood [1]; [14],294 s
same,CFT (clot formation time),whole blood [1]; [15],794 s
same,CT (clotting time),whole blood [1]; [15],581 s
same,CFT (clot formation time),whole blood [1]; [16],145 s
same,CT (clotting time),whole blood [1]; [16],619 s
same,CFT (clot formation time),whole blood [1]; [17],403 s
same,CT (clotting time),whole blood [1]; [17],1074 s
same,CFT (clot formation time),whole blood [1]; [18],232 s
same,CT (clotting time),whole blood [1]; [18],799 s
same,blood clotting time,"whole blood [1]; Ex22, TP 0.055 μg/mL+Ca+CTI+PKSI-527, ARIXTRA 0.2 μg/mL, rTM 20 nM",≥ 1 h
same,CFT (clot formation time),whole blood [1]; [19],No CFT
same,CT (clotting time),whole blood [1]; [19],No CT
same,CT (clotting time),whole blood [2]; no rTM,466 s
same,CT (clotting time),whole blood [2]; rTM 30 nM,996 s
same,CT (clotting time),whole blood [2]; rTM 30 nM+APC inhibitory aptamer 1 μM,474 s
same,anticoagulation ability of the soluble thrombomodulin,"whole blood [2]; addition of ARIXTRA 0.5 μg/mL, rTM 30 nM",markedly enhanced
Unfractionated heparin,prolongation of blood coagulation by addition of rTM,whole blood [1]; [3],markedly prolonged
same,CFT (clot formation time),whole blood [1]; [20],98 s
same,CT (clotting time),whole blood [1]; [20],53 s
same,CFT (clot formation time),whole blood [1]; [21],93 s
same,CT (clotting time),whole blood [1]; [21],66 s
same,CFT (clot formation time),whole blood [1]; [22],82.0 s
same,CT (clotting time),whole blood [1]; [22],73 s
same,CFT (clot formation time),whole blood [1]; [23],102 s
same,CT (clotting time),whole blood [1]; [23],89 s
same,CFT (clot formation time),whole blood [1]; [24],86.0 s
same,CT (clotting time),whole blood [1]; [24],69 s
same,CFT (clot formation time),whole blood [1]; [25],161 s
same,CT (clotting time),whole blood [1]; [25],182 s
